Legend:
[1] = tested on: bovine liver alkaline phosphatase; experiment: Potency as alkaline phosphatase inhibitor relative to levamisole; type: biochemical
[2] = tested on: bovine liver alkaline phosphatase; experiment: Accelerated stability in various pH 9.8 buffers at 45° C.; functional inhibitor measured by inhibition of bovine liver alkaline phosphatase; type: physicochemical; details: for Percent of Functional Levamisole Remaining: 45° C., Day 0
Experimental: Various buffers were prepared at 100 mM concentrations, containing 1 mM magnesium chloride, and adjusted to pH 9.8. […] (accelerated decomposition study). […] Bovine liver AP was added and the reaction kinetics were followed at 405 nm.

[3] = tested on: AP from the intestine; details: intestinal versus nonintestinal AP; cited from earlier work
[4] = tested on: AP from several mammalian tissue types; details: cited from earlier work
[5] = pH 7.9 versus pH 2; cited from earlier work

Compound | more potent than levamisole [1] | Percent of Functional Levamisole Remaining ([2]; AMP buffer, pH 9.8, 0.1 mM p-bromolevamisole) [%] | Percent of Functional Levamisole Remaining ([2]; AMPD buffer, pH 9.8, 0.1 mM p-bromolevamisole) [%] | Percent of Functional Levamisole Remaining ([2]; Carbonate buffer, pH 9.8, 0.1 mM p-bromolevamisole) [%] | Percent of Functional Levamisole Remaining ([2]; Diethanolamine buffer, pH 9.8, 0.1 mM p-bromolevamisole) [%] | Percent of Functional Levamisole Remaining ([2]; Glycine buffer, pH 9.8, 0.1 mM p-bromolevamisole) [%] | Percent of Functional Levamisole Remaining ([2]; Triethanolamine buffer, pH 9.8, 0.1 mM p-bromolevamisole) [%] | decomposition compared with the parent compound (levamisole) ([2]; pH 9.8, 45° C.) | less potent toward AP from the intestine than toward AP from several mammalian tissue types [3] | inhibition of AP from several mammalian tissue types [4] | decomposed faster at pH 7.9 than at pH 2 [5] [times] | Percent of Functional Levamisole Remaining ([2]; AMP buffer 100 mM, 1 mM magnesium chloride, pH 9.8, 1 mM levamisole) [%] | Percent of Functional Levamisole Remaining ([2]; AMPD buffer 100 mM, 1 mM magnesium chloride, pH 9.8, 1 mM levamisole) [%] | Percent of Functional Levamisole Remaining ([2]; Carbonate buffer 100 mM, 1 mM magnesium chloride, pH 9.8, 1 mM levamisole) [%] | Percent of Functional Levamisole Remaining ([2]; Diethanolamine buffer 100 mM, 1 mM magnesium chloride, pH 9.8, 1 mM levamisole) [%] | Percent of Functional Levamisole Remaining ([2]; Glycine buffer 100 mM, 1 mM magnesium chloride, pH 9.8, 1 mM levamisole) [%] | Percent of Functional Levamisole Remaining ([2]; Triethanolamine buffer 100 mM, 1 mM magnesium chloride, pH 9.8, 1 mM levamisole) [%] | stability in AMPD and particularly in AMP compared with other buffers ([2]; pH 9.8, 45° C.)
Brc1ccc([C@H]2CN3CCSC3=N2)cc1 [p-bromolevamisole] | approximately 10 fold | 100 | 100 | 100 | 100 | 100 | 100 | quite a bit faster | – | – | – | – | – | – | – | – | – | –
c1ccc([C@H]2CN3CCSC3=N2)cc1 [levamisole, (-)2,3,5,6-tetrahydro-6-phenylimidazo[1,2-b]thiazole] | – | – | – | – | – | – | – | – | approximately 100 fold | potent inhibitor | 70 | 100 | 100 | 100 | 100 | 100 | 100 | substantially greater
